Source: paper PMC10905675, “INX-315, a Selective CDK2 Inhibitor, Induces Cell Cycle Arrest and Senescence in Solid Tumors” (Cancer Discovery, 2023)
Like-named read-outs stand apart in the source and are kept apart here.

How the values were obtained:
AMPK (A2/B2/G1) = molecular target: T1, AMPK (A2/B2/G1) (Homo sapiens, UniProt P54646); assay: SelectScreen LanthaScreen Binding; conditions: INX-0315 at 100nM
T1 construct: purchased Thermo Fisher Scientific SelectScreen (plus Nanosyn / Reaction Biology for CDK/cyclin lines)
Text: (§1) INX-315 was first evaluated in the SelectScreen Biochemical Kinase Profiling at Thermo Fisher Scientific (Madison, WI). The primary screen consisted of INX-315 dosed at a single concentration of 100 nmol/L in 1% DMSO across each platform within the SelectScreen array of assays, LanthaScreen Eu Kinase Binding Assay; AdaptaScreen; and Z'LyteScreen using preestablished conditions at Thermo Fisher Scientific as shown in Supplementary Table S2. […] The follow-up screen consisted of 10-point dose–response curves for INX-315 from 1 µmol/L to 0.0495 nmol/L.

CAMKK1 (CAMKKA) = molecular target: T2, CAMKK1 (CAMKKA) (Homo sapiens, UniProt Q8N5S9); assay: SelectScreen LanthaScreen Binding; conditions: INX-0315 at 100nM
T2 construct: purchased Thermo Fisher Scientific SelectScreen (plus Nanosyn / Reaction Biology for CDK/cyclin lines)
T2 sequence (Q8N5S9 whole entry): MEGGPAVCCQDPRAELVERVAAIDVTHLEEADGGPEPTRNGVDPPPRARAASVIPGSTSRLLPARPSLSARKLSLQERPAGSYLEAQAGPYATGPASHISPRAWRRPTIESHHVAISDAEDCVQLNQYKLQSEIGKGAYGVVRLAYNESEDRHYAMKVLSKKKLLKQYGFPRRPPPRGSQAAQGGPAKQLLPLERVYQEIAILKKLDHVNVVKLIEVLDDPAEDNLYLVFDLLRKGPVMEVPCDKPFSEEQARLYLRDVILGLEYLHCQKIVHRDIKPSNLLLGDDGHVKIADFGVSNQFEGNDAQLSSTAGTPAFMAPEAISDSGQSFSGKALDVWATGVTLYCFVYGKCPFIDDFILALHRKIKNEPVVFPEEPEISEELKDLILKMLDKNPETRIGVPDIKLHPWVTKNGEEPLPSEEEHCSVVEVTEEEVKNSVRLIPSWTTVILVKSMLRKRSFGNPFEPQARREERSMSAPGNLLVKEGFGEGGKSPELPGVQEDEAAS
Text: as §1

CDK2/cyclin A1 = molecular target: T3, CDK2/cyclin A1 (Homo sapiens, UniProt P24941); assay: SelectScreen LanthaScreen Binding; conditions: INX-0315 at 100nM
T3 construct: host or cells: HEK293
Text: as §1

DDR2 N456S = molecular target: T4, DDR2 N456S (Homo sapiens, UniProt Q16832, N456S); assay: SelectScreen LanthaScreen Binding; conditions: INX-0315 at 100nM
T4 construct: purchased Thermo Fisher Scientific SelectScreen (plus Nanosyn / Reaction Biology for CDK/cyclin lines)
T4 sequence (Q16832 22-855 N456S): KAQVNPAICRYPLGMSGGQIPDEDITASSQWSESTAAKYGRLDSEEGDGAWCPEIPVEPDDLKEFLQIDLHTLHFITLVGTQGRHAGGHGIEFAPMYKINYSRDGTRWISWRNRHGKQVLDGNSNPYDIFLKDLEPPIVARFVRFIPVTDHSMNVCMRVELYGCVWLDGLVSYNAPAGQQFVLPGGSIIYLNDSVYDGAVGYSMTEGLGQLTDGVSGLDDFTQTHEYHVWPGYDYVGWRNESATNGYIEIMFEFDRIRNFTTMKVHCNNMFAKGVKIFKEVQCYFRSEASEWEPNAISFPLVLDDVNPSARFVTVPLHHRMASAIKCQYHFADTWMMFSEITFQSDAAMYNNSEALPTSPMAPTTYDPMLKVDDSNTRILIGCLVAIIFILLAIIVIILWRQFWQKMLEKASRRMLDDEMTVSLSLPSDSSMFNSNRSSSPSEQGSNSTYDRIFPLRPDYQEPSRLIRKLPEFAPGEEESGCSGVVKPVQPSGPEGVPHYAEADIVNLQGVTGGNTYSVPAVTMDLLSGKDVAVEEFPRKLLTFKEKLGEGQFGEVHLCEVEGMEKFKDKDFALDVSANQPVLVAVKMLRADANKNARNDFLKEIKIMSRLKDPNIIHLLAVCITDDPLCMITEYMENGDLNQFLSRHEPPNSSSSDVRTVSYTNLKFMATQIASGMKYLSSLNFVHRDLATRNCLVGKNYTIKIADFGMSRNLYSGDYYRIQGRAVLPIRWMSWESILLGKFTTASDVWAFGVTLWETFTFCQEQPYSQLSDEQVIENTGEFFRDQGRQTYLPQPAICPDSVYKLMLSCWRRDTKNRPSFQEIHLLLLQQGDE
Text: as §1

KIT A829P = molecular target: T5, KIT A829P (Homo sapiens, UniProt P10721, A829P); assay: SelectScreen LanthaScreen Binding; conditions: INX-0315 at 100nM
T5 construct: purchased Thermo Fisher Scientific SelectScreen (plus Nanosyn / Reaction Biology for CDK/cyclin lines)
Text: as §1

KIT Y823D = molecular target: T6, KIT Y823D (Homo sapiens, UniProt P10721, Y823D); assay: SelectScreen LanthaScreen Binding; conditions: INX-0315 at 100nM
T6 construct: purchased Thermo Fisher Scientific SelectScreen (plus Nanosyn / Reaction Biology for CDK/cyclin lines)
Text: as §1

[1] = molecular target: T7, MAP2K1 (MEK1) S218D S222D (Homo sapiens, UniProt Q02750, S218D/S222D); assay: SelectScreen LanthaScreen Binding; conditions: INX-0315 at 100nM
T7 construct: purchased Thermo Fisher Scientific SelectScreen (plus Nanosyn / Reaction Biology for CDK/cyclin lines)
T7 sequence (Q02750 whole entry S218D/S222D): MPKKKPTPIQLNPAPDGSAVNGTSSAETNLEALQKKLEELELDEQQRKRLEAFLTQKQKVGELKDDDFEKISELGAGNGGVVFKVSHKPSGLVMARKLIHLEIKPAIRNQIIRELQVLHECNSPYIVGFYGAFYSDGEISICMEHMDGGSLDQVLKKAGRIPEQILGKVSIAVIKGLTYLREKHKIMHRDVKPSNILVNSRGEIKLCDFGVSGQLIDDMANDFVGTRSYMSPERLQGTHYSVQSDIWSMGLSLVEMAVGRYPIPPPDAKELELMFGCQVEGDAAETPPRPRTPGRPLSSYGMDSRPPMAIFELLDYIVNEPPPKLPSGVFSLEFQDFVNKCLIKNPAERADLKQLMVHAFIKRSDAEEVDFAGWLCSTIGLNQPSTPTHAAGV
Text: as §1

MAP2K6 (MKK6) = molecular target: T8, MAP2K6 (MKK6) (Homo sapiens, UniProt P52564); assay: SelectScreen LanthaScreen Binding; conditions: INX-0315 at 100nM
T8 construct: purchased Thermo Fisher Scientific SelectScreen (plus Nanosyn / Reaction Biology for CDK/cyclin lines)
Text: as §1

MAP3K3 (MEKK3) = molecular target: T9, MAP3K3 (MEKK3) (Homo sapiens, UniProt Q99759); assay: SelectScreen LanthaScreen Binding; conditions: INX-0315 at 100nM
T9 construct: purchased Thermo Fisher Scientific SelectScreen (plus Nanosyn / Reaction Biology for CDK/cyclin lines)
T9 sequence (Q99759 whole entry): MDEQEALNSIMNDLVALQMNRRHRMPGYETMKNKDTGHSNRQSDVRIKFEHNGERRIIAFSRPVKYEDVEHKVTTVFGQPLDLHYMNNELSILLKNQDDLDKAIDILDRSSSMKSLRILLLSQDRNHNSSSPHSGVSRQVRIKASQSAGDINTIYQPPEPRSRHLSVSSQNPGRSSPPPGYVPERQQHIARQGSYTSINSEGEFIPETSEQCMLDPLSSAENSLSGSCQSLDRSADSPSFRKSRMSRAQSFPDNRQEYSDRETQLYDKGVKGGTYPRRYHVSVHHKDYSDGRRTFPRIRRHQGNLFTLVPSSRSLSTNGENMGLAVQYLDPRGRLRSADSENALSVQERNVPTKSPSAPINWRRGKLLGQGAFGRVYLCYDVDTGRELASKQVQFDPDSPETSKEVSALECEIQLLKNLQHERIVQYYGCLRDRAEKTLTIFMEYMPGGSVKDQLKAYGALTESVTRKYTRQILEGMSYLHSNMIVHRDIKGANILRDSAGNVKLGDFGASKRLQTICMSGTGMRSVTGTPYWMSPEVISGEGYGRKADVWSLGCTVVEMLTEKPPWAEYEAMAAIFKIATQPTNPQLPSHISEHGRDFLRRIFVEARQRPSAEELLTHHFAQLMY
Text: as §1

MAP4K3 (GLK) = molecular target: T10, MAP4K3 (GLK) (Homo sapiens, UniProt Q8IVH8); assay: SelectScreen LanthaScreen Binding; conditions: INX-0315 at 100nM
T10 construct: purchased Thermo Fisher Scientific SelectScreen (plus Nanosyn / Reaction Biology for CDK/cyclin lines)
Text: as §1

MLK4 = molecular target: T11, MLK4 (Homo sapiens, UniProt Q5TCX8); assay: SelectScreen LanthaScreen Binding; conditions: INX-0315 at 100nM
T11 construct: purchased Thermo Fisher Scientific SelectScreen (plus Nanosyn / Reaction Biology for CDK/cyclin lines)
Text: as §1

NLK = molecular target: T12, NLK (Homo sapiens, UniProt Q9UBE8); assay: SelectScreen LanthaScreen Binding; conditions: INX-0315 at 100nM
T12 construct: purchased Thermo Fisher Scientific SelectScreen (plus Nanosyn / Reaction Biology for CDK/cyclin lines)
Text: as §1

PRKACB (PRKAC beta) = molecular target: T13, PRKACB (PRKAC beta) (Homo sapiens, UniProt P22694); assay: SelectScreen LanthaScreen Binding; conditions: INX-0315 at 100nM
T13 construct: purchased Thermo Fisher Scientific SelectScreen (plus Nanosyn / Reaction Biology for CDK/cyclin lines)
Text: as §1

RET G691S = molecular target: T14, RET G691S (Homo sapiens, UniProt P07949, G691S); assay: SelectScreen LanthaScreen Binding; conditions: INX-0315 at 100nM
T14 construct: purchased Thermo Fisher Scientific SelectScreen (plus Nanosyn / Reaction Biology for CDK/cyclin lines)
T14 sequence (P07949 29-1114 G691S): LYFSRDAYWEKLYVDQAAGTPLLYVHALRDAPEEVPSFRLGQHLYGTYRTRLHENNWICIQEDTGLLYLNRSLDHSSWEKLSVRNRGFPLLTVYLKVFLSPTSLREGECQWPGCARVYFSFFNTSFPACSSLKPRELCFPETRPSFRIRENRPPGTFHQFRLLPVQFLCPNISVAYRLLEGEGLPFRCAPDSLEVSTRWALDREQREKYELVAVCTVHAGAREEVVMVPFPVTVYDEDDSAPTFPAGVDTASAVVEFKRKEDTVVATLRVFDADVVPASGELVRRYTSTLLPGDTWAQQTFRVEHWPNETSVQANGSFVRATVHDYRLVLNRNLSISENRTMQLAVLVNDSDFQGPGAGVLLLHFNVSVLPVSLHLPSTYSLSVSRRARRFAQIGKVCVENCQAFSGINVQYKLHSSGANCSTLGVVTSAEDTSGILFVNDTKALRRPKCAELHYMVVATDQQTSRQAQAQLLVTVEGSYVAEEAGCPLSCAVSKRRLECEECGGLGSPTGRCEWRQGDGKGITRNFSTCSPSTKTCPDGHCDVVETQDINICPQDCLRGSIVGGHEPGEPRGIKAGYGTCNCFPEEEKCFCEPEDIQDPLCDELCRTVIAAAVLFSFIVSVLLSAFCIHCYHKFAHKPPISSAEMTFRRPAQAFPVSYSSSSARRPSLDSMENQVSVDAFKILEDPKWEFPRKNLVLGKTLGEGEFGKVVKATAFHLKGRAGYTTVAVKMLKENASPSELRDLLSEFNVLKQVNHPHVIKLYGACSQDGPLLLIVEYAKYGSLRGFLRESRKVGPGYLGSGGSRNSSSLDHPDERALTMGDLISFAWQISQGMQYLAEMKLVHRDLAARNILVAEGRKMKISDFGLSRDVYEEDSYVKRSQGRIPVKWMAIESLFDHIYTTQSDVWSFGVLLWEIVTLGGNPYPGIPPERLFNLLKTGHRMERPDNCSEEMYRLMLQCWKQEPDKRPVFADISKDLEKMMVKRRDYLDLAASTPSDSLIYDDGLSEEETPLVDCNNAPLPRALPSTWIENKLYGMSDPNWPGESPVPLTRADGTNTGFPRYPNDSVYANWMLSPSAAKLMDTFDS
Text: as §1

STK39 (STLK3) = molecular target: T15, STK39 (STLK3) (Homo sapiens, UniProt Q9UEW8); assay: SelectScreen LanthaScreen Binding; conditions: INX-0315 at 100nM
T15 construct: purchased Thermo Fisher Scientific SelectScreen (plus Nanosyn / Reaction Biology for CDK/cyclin lines)
Text: as §1

TEK (TIE2) R849W = molecular target: T16, TEK (TIE2) R849W (Homo sapiens, UniProt Q02763, R849W); assay: SelectScreen LanthaScreen Binding; conditions: INX-0315 at 100nM
T16 construct: purchased Thermo Fisher Scientific SelectScreen (plus Nanosyn / Reaction Biology for CDK/cyclin lines)
T16 sequence (Q02763 23-1124 R849W): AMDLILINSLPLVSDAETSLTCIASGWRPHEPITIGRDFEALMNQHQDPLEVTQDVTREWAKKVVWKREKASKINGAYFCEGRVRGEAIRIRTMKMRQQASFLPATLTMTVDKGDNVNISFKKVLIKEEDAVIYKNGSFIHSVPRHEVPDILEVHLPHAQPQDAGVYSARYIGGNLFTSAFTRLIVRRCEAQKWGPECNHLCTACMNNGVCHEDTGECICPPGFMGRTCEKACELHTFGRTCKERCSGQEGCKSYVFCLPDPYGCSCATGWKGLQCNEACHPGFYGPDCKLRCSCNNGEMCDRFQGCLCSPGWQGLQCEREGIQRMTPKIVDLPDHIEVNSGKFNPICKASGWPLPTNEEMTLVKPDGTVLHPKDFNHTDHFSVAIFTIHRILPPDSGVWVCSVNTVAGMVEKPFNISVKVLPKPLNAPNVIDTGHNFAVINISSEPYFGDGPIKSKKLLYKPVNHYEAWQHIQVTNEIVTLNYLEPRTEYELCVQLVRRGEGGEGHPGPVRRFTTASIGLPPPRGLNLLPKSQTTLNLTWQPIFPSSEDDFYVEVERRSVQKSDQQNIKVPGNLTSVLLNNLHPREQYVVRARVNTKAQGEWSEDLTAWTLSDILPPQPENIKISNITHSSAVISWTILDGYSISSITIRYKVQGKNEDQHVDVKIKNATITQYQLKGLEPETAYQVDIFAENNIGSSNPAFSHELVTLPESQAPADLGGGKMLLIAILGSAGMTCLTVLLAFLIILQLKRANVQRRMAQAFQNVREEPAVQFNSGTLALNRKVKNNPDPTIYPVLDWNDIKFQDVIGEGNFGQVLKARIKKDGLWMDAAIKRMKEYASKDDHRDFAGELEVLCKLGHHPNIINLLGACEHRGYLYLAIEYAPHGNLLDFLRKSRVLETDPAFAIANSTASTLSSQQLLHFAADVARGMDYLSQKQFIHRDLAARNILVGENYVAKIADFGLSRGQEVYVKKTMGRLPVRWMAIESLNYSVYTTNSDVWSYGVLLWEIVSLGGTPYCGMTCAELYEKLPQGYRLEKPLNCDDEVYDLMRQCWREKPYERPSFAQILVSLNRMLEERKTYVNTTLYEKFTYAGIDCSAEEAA
Text: as §1

TGFBR1 (ALK5) = molecular target: T17, TGFBR1 (ALK5) (Homo sapiens, UniProt P36897); assay: SelectScreen LanthaScreen Binding; conditions: INX-0315 at 100nM
T17 construct: purchased Thermo Fisher Scientific SelectScreen (plus Nanosyn / Reaction Biology for CDK/cyclin lines)
T17 sequence (P36897 34-503): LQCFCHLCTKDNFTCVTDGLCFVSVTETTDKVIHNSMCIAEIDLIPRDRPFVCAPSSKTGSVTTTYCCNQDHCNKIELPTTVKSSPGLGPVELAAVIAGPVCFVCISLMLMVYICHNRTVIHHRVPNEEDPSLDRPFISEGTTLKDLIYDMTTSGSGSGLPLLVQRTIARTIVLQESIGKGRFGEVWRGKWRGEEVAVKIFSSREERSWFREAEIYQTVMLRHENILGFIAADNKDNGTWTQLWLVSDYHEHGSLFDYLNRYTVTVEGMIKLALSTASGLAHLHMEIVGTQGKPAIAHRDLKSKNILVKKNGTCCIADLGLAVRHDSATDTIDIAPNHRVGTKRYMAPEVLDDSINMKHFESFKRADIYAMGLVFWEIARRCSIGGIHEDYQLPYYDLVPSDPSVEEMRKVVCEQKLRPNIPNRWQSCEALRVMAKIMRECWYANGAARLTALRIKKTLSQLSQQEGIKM
Text: as §1

ZAK = molecular target: T18, ZAK (Homo sapiens, UniProt Q9NYL2); assay: SelectScreen LanthaScreen Binding; conditions: INX-0315 at 100nM
T18 construct: purchased Thermo Fisher Scientific SelectScreen (plus Nanosyn / Reaction Biology for CDK/cyclin lines)
Text: as §1

Water solubility = assay type: physicochemical
pKa = assay type: physicochemical
[2] = Microsomal stability assay; assay type: in vitro ADME
Description: Microsomal stability was determined by Absorption Systems (Exton, PA). INX-315 was tested in mixed-gender human liver microsomes (Lot #1010420), male Sprague-Dawley rat liver microsomes (Lot #1910100), male CD-1 mouse liver microsomes (Lot #2010017), and male beagle dog liver microsomes (Lot #2010046) were purchased from XenoTech/BioIVT by Absorption Systems. The reaction mixture, minus NADPH, was prepared as described below. The test article was added into the reaction mixture at a final concentration of 1 µmol/L. The control compound, testosterone, was run simultaneously with the test article in a separate reaction. The reaction mixture (without cofactor) was equilibrated in a shaking water bath at 37°C for 5 minutes. The reaction was initiated by the addition of the cofactor, and the mixture was incubated in a shaking water bath at 37°C. Aliquots (100 µL) were withdrawn at 0, 10, 20, 30, and 60 minutes. Test article and testosterone samples were immediately combined with 400 µL of ice-cold 50/50 acetonitrile (ACN)/H2O containing 0.1% formic acid and internal standard to terminate the reaction. The samples were then mixed and centrifuged to precipitate proteins. All samples were assayed by LC-MS/MS using electrospray ionization. The peak area response ratio (PARR) of analyte to internal standard at each time point was compared to the PARR at time 0 to determine the percent remaining at each time point. Half-lives and clearance were calculated using GraphPad software (RRID:SCR_002798), fitting to a single-phase exponential decay equation.

[3] = tested on: CDK4/6-resistant breast cancer cells; assay: Cell number dose-response (discussion summary); assay type: cell-based; conditions: addition of INX-315 to CDK4/6-resistant cells
Description: An exception to this is MCF7PDRCl5-1 cells which were first cultured for 5 days without palbociclib then plated as described. MCF7PDRCl5-1 cells were treated with either a dose curve of the indicated CDK4/6i or a dose curve of INX-315 + 1 µmol/L of the indicated CDK4/6i. Cell viability was determined using the CellTiter-Glo assay (Promega, G9241) following manufacturer's instructions. Plates were processed on either BioTek Synergy2 multi-mode (Agilent) or ClarioSTAR (BMG Labtech) plate readers. T47D and MCF7 cells were seeded into […] plates using BioTek 406 (Aglient) and treated with a ten-point dose concentration from 10 µmol/L to 0.3 nmol/L of INX-315 for 2× doubling times. Plates were fixed with 4% PFA and stained with Rhodamine-Phalloidin (Bio-Trend, 00027) and DAPI (5 mg/mL, Invitrogen, catalog no. D1306). Plates were imaged using CellInsight CX7 LZR and DAPI-positive cells were counted using Thermo Fisher Scientific HCS Studio Cell Analysis Software.

For NS(=O)(=O)c1ccc(Nc2ncc3cc4n(c3n2)C2(CCCCC2)C(=O)NN4)cc1 [INX-315], which inhibition at 0.1 µM (AMPK (A2/B2/G1)) is on record?
Its inhibition at 0.1 µM is 9%.

And the inhibition at 0.1 µM (CAMKK1 (CAMKKA))?
Its inhibition at 0.1 µM is 6%.

What about the inhibition at 0.1 µM (CDK2/cyclin A1) of the same molecule?
Its inhibition at 0.1 µM is 94%.

And the inhibition at 0.1 µM (DDR2 N456S)?
Its inhibition at 0.1 µM is 14%.

What about the inhibition at 0.1 µM (KIT A829P) of the same molecule?
The inhibition at 0.1 µM was 28%.

What about the inhibition at 0.1 µM (KIT Y823D) of the same molecule?
Its inhibition at 0.1 µM is 31%.

And the inhibition at 0.1 µM [1]?
Its inhibition at 0.1 µM is 1%.

What about the inhibition at 0.1 µM (MAP2K6 (MKK6)) of the same molecule?
Its inhibition at 0.1 µM is -3%.

And the inhibition at 0.1 µM (MAP3K3 (MEKK3))?
Its inhibition at 0.1 µM is 18%.

And the inhibition at 0.1 µM (MAP4K3 (GLK))?
The inhibition at 0.1 µM was 8%.

What about the inhibition at 0.1 µM (MLK4) of the same molecule?
Its inhibition at 0.1 µM is -5%.

What about the inhibition at 0.1 µM (NLK) of the same molecule?
Its inhibition at 0.1 µM is 0%.

And the inhibition at 0.1 µM (PRKACB (PRKAC beta))?
Its inhibition at 0.1 µM is 1%.

And the inhibition at 0.1 µM (RET G691S)?
The inhibition at 0.1 µM was 35%.

And the inhibition at 0.1 µM (STK39 (STLK3))?
The inhibition at 0.1 µM was 14%.

And the inhibition at 0.1 µM (TEK (TIE2) R849W)?
Its inhibition at 0.1 µM is 7%.

What about the inhibition at 0.1 µM (TGFBR1 (ALK5)) of the same molecule?
Its inhibition at 0.1 µM is 4%.

What about the inhibition at 0.1 µM (ZAK) of the same molecule?
Its inhibition at 0.1 µM is 3%.

What about the solubility (Water solubility) of the same molecule?
The solubility was less than 50 µg/mL.

What about the pKa (pKa; read-out: pKa (acidic)) of the same molecule?
The pKa was 10.4.

And the pKa (pKa; read-out: pKa (basic))?
The pKa was 5.08.

What about the half-life at 1 µmol/L ([2]; both sexes, human, liver microsomes, 1 µmol/L, 60 min incubation, read-out: Half-life) of the same molecule?
The half-life at 1 µmol/L was greater than 1 h.

And the half-life at 1 µmol/L ([2]; both sexes, human, liver microsomes, longer than the duration of the experiment, read-out: calculated half-life (in parenthesis))?
The half-life at 1 µmol/L was 1.78 h.

What about the half-life at 1 µmol/L ([2]; male, CD-1, liver microsomes, Mouse microsomes, 60 min incubation) of the same molecule?
The half-life at 1 µmol/L was 0.44 h.

What about the half-life at 1 µmol/L ([2]; male, Sprague-Dawley, rat, liver microsomes, 1 µmol/L, 60 min incubation, read-out: Half-life) of the same molecule?
The half-life at 1 µmol/L was greater than 1 h.

What about the half-life at 1 µmol/L ([2]; male, Sprague-Dawley, rat, liver microsomes, longer than the duration of the experiment, read-out: calculated half-life (in parenthesis)) of the same molecule?
The half-life at 1 µmol/L was 1.11 h.

What about the half-life at 1 µmol/L ([2]; male, beagle, dog, liver microsomes, 1 µmol/L, 60 min incubation, read-out: Half-life) of the same molecule?
The half-life at 1 µmol/L was greater than 1 h.

And the half-life at 1 µmol/L ([2]; male, beagle, dog, liver microsomes, longer than the duration of the experiment, read-out: calculated half-life (in parenthesis))?
Its half-life at 1 µmol/L is 1.34 h.

And the IC50 [3]?
Its IC50 is less than 25 nM.
